According to patent US10662229B2, “Spider venom peptides and methods of use for modulating sodium channels” (priority 2016, dated 2020):

Tests used:
[1] = biological target: T1, hERG (Homo sapiens, UniProt Q12809); assay: hERG automated patch clamping in CHO cells; type: cell-based; details: 100 nM
T1 construct: host or cells: CHO
Experimental: CHO cells stably expressing hERG (B'SYS GmbH, Witterswil, Switzerland) were cultured in Ham's F-12 medium containing 10% v/v FBS and selection antibiotics as recommended by the manufacturer. Cells were cultured and prepared as described in Example 4.
The extracellular solution contained in mM: NaCl 145, KCl 4, MgCl2 1, CaCl2 2, HEPES 10 and glucose 10. The pH was adjusted to 7.4 and osmolarity was 305 mOsm. The intracellular solution contained in mM; KCl 120, HEPES 10, CaCl2 5, MgCl2 1.7, K2ATP 4, EGTA 10.
The pH was adjusted to 7.3 and osmolarity was 292 mOsm.
Whole-cell patch-clamp experiments were performed on a QPatch-16 automated electrophysiology platform (as described in Example 4). hERG currents were elicited by a depolarization step of +40 mV from a holding potential of −80 mV for 5 s. hERG tail currents were elicited upon partial repolarization to −50 mV for 5 s. The interval of voltages pulses was 15 s.

[2] = biological target: T2, hNav1.9 (Homo sapiens, UniProt Q9UI33); assay: Automated patch clamp (PatchXpress), hNav1.9; type: cell-based
T2 construct: expressed in transfected cells; host or cells: HEK293
Experimental: Cells were triturated until a single cell suspension was achieved. […] Cell aliquots of 5 mL (1×10^6 cells) were placed in a 15 mL centrifuge tube and spun at 100×g for 2 minutes.

[3] = biological target: T3, hNav1.5 (Homo sapiens, UniProt Q14524); assay: Automated patch clamping (QPatch-16), hNav1.5; type: cell-based
T3 construct: host or cells: HEK293
Experimental: (§1) HEK293 cells stably expressing hNav1.1-1.7 or CHO cells stably expressing hNav1.8 (as described in Example 3 above) were cultured in a T-175 flask in selection antibiotic-free media at 37° C. Cells were grown to 70-80% confluence and harvested using Detachin (Bio-Scientific, NSW, Australia) at 37° C. for 2 min. Dissociated cells were then resuspended in Ex-Cell ACF CHO Medium with HEPES (25 mM; Sigma-Aldrich Co.) and allowed to recover on the QStirrer for 30 min.
(§2) The extracellular solution contained in mM: NaCl 145, KCl 4, CaCl2 2, MgCl2 1, HEPES 10 and glucose 10. The pH was adjusted to 7.4 with NaOH and osmolarity was adjusted with sucrose to 305 mOsm. The intracellular solution contained in mM: CsF 140, ethylene glycol tetraacetic acid (EGTA)/CsOH 1/5, HEPES 10 and NaCl 10. The pH was adjusted to 7.3 with CsOH and osmolarity adjusted with sucrose to 320 mOsm. […]
(§3) The current-voltage (IV) curve was constructed with a holding potential of −80 mV followed by a pre-pulse of −100 mV for 50 ms and a series of 50 ms step pulses that ranged from −80 to 50 mV in 5 mV increments before returning to a holding potential of −80 mV. Voltage-dependence of activation was determined as normalized Nav conductance (GNa) using: GNa=INa/(Vmemb−Vrev), where Vmemb is the membrane potential and Vrev is the reversal potential for each cell. […]

[4] = biological target: T4, hNav1.6 (Homo sapiens, UniProt Q9UQD0); assay: Automated patch clamping (QPatch-16), hNav1.6; type: cell-based; details: mean±SEM
T4 construct: host or cells: HEK293
Experimental: as §1, §2, §3

[5] = biological target: T5, hNav1.2 (Homo sapiens, UniProt Q99250); assay: Automated patch clamping (QPatch-16), hNav1.2; type: cell-based
T5 construct: host or cells: HEK293
Experimental: as §1, §2, §3

[6] = tested on: ciguatoxin-induced spontaneous pain in mice; assay: Ciguatoxin-induced spontaneous pain; type: in vivo; details: intraplantar, co-injected with ciguatoxin
Experimental: For behavioural assessment adult male C57BL/6J mice aged 6-8 weeks were used. Animals were housed in groups of 3 or 4 per cage, under 12 h light-dark cycles and had standard rodent chow and water ad libitum.
Ciguatoxin (P-CTX-1; isolated in accordance with the protocol of Hamilton et al. (2002) Toxicon, 40(6): 685-693) was diluted in phosphate-buffered saline/0.1% BSA (10 nM) and administered by shallow subcutaneous (intraplantar) injection to the left hind paw of mice in a volume of 40 μL under light isoflurane (3%) anesthesia. Mice were then placed individually into polyvinyl boxes (10×10×10 cm), and spontaneous pain behavior (licks and flinches) was counted by an investigator unaware of the treatments received from video recordings for 10 min post-injection.

[7] = biological target: T6, hNav1.4 (Homo sapiens, UniProt P35499); assay: FLIPR membrane potential assay, hNav1.4; type: cell-based
T6 construct: host or cells: HEK293
How it was run: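 Stable HEK293 lines, one per hNav isoform; red membrane potential dye, 30 min, 37° C; FLIPR^TETRA read at 1 s intervals over 300 s post-agonist.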

[8] = Stability of Pnc1a in solutions (RP-HPLC/MS); type: physicochemical; details: room temperature

T1 sequence (Q12809 whole entry): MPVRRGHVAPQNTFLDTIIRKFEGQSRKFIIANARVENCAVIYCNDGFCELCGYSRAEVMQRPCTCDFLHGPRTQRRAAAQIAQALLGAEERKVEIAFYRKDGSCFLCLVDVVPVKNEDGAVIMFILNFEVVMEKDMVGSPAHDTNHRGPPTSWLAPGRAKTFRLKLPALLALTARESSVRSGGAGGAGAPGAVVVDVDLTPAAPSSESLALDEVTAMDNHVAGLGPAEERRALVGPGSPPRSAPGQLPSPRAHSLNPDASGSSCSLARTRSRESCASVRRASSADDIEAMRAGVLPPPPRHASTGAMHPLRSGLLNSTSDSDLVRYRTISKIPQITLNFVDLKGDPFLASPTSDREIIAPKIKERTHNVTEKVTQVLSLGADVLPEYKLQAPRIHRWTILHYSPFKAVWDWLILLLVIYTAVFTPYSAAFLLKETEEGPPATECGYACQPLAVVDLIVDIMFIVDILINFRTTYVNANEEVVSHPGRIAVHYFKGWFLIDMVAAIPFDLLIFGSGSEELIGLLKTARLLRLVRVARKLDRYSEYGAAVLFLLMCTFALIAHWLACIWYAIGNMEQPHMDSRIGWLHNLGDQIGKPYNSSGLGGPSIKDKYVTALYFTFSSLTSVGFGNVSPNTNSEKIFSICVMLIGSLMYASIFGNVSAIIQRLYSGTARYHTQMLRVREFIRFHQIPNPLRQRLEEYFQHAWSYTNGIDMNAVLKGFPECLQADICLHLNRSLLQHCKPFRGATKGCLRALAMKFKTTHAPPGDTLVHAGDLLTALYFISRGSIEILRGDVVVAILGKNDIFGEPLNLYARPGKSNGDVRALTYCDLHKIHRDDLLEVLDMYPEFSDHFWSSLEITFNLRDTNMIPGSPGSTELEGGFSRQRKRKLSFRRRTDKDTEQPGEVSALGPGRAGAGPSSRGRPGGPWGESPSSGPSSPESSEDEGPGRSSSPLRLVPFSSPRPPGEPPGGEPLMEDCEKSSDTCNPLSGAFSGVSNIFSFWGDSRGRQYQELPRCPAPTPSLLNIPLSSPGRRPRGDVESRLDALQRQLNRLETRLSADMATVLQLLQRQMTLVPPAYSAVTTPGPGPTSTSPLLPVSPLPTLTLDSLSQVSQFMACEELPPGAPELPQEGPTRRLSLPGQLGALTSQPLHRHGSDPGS
T6 sequence (P35499 whole entry): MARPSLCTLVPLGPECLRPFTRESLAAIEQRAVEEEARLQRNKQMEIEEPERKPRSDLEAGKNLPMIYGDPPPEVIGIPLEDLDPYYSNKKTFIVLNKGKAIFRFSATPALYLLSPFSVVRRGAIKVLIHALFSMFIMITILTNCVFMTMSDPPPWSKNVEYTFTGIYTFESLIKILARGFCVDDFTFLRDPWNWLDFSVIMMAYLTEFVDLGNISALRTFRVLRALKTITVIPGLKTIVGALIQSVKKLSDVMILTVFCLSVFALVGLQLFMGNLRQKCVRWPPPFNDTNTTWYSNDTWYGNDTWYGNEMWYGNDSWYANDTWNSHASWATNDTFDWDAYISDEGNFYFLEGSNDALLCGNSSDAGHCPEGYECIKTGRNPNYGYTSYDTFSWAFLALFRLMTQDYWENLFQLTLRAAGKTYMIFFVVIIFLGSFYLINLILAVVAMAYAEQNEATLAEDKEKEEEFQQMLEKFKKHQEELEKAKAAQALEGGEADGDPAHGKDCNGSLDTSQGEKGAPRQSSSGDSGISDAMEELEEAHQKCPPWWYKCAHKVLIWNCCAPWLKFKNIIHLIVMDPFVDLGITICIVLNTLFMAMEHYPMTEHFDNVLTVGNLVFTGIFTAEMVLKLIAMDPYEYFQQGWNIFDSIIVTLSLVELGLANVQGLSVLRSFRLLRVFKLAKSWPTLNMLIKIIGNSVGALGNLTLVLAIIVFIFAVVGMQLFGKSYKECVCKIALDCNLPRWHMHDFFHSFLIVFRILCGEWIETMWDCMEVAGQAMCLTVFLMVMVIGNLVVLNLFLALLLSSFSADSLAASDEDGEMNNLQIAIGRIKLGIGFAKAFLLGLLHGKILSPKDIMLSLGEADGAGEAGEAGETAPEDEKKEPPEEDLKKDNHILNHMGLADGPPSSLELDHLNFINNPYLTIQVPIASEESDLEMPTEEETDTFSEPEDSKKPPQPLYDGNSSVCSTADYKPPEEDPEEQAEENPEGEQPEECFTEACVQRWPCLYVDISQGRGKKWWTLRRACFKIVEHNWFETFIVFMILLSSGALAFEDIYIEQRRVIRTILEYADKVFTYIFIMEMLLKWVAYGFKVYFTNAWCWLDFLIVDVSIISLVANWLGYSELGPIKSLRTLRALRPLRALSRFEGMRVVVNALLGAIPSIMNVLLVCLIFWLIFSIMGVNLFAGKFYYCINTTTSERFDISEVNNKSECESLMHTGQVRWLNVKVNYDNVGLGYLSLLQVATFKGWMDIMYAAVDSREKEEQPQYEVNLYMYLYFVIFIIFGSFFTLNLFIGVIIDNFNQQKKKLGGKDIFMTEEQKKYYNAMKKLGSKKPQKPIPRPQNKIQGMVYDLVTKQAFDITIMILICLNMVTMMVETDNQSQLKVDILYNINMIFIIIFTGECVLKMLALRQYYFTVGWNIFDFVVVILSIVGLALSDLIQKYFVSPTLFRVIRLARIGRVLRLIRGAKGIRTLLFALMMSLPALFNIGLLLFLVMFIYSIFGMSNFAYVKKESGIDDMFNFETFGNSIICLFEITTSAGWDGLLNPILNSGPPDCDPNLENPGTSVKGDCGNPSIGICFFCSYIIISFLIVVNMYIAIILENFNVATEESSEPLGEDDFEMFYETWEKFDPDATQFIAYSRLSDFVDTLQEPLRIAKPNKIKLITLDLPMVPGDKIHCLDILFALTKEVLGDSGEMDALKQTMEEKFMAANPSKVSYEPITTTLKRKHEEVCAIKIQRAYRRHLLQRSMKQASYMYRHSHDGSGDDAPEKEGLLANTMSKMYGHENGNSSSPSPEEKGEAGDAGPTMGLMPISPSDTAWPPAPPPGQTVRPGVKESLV
T5 sequence (Q99250 whole entry): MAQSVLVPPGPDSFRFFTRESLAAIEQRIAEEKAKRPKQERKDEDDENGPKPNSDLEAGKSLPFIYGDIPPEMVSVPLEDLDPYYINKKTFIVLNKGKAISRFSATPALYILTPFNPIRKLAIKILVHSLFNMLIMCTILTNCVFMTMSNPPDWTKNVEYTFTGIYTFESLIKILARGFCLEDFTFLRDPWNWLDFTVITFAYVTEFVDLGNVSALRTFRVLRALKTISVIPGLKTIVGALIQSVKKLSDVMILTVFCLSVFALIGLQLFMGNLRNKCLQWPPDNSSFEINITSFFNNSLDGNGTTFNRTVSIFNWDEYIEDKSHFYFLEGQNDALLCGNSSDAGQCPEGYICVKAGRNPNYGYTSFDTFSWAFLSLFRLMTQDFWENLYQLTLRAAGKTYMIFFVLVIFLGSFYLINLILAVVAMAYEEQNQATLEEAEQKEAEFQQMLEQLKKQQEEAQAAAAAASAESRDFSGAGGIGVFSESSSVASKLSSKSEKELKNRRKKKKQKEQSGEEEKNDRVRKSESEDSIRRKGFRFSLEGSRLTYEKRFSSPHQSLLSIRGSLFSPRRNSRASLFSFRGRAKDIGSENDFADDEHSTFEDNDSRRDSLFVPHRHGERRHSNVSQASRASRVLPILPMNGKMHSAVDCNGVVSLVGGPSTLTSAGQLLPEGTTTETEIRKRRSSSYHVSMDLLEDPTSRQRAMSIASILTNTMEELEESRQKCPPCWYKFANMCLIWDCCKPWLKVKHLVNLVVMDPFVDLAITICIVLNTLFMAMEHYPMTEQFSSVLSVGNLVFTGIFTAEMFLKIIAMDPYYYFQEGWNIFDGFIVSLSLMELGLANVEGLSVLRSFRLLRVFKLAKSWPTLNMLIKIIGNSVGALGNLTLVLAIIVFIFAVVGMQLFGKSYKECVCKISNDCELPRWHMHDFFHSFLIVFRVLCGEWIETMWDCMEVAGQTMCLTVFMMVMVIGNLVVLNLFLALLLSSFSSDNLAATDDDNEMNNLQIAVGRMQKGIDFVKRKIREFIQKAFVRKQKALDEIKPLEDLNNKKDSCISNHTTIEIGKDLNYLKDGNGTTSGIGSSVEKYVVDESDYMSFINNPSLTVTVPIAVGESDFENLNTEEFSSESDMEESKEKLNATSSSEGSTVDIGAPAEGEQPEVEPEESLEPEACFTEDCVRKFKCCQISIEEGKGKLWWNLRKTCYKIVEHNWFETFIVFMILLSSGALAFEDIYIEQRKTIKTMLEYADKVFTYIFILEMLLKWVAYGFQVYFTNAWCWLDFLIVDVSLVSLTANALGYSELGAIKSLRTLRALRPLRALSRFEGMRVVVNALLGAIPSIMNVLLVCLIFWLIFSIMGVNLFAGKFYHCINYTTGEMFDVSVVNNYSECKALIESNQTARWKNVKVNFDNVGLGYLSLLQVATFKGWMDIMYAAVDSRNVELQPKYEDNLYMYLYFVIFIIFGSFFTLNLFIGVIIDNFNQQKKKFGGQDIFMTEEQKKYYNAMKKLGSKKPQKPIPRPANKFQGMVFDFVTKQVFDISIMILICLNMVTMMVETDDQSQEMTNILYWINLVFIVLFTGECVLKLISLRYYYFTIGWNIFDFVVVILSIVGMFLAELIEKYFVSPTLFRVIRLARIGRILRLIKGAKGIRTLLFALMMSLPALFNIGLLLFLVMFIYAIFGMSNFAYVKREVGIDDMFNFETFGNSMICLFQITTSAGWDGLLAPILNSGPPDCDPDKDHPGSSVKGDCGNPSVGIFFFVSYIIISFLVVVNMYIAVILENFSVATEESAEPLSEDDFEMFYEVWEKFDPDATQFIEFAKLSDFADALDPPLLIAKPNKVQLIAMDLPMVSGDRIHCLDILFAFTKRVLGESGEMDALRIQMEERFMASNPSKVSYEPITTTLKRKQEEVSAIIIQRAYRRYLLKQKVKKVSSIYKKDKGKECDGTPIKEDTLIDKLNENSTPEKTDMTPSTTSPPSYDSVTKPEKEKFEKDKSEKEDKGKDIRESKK

CSCC[C@@H]1NC(=O)[C@H](Cc2ccc(O)cc2)NC(=O)[C@H](CCCNC(=N)N)NC(=O)[C@@H](NC(=O)[C@@H](N)CC(=O)O)CSSC[C@@H]2NC(=O)[C@@H]3CSSC[C@@H](C(=O)N[C@@H](C)C(=O)N[C@@H](Cc4c[nH]c5ccccc45)C(=O)N[C@@H](CC(=O)O)C(=O)N[C@@H](Cc4ccccc4)C(=O)N[C@H](C(=O)N[C@@H](Cc4ccccc4)C(=O)N[C@H](C(=O)O)[C@@H](C)O)[C@@H](C)O)NC(=O)[C@H](Cc4ccc(O)cc4)NC(=O)[C@H](CCCCN)NC(=O)[C@H](CCSC)NC(=O)[C@H](CCCCN)NC(=O)[C@H](CCCNC(=N)N)NC(=O)[C@H](CCCCN)NC(=O)[C@H](CSSC[C@H](NC(=O)[C@H](CC(=O)O)NC(=O)CNC(=O)[C@H](Cc4ccccc4)NC1=O)C(=O)N[C@@H](CCC(=O)O)C(=O)N[C@@H](CCCCN)C(=O)N[C@@H](CC(=O)O)C(=O)N[C@@H](CCC(=O)O)C(=O)N[C@@H](CC(=O)O)C(=O)N3)NC(=O)CNC(=O)[C@H](CC(C)C)NC(=O)[C@H](Cc1cnc[nH]1)NC(=O)[C@H](CCCCN)NC2=O [Pnc1a]
effect on hERG peak tail current [1]: did not have a significant effect
hERG peak tail current ([1]; control 539±13 pA): 504±38 pA
IC50 [2]: 2340 nM
IC50 [3]: 977 nM
pIC50 Nav1.6 [4]: 6.89±0.1 M
IC50 [5]: 126 nM
ciguatoxin-induced spontaneous pain behaviours [6]: significantly reduced
IC50 [7]: 11200 nM
time after which no intact peptide remained ([8]; PBS pH 6.5, 100 μM): 12 days
time after which no intact peptide remained ([8]; PBS/saline pH 5.7, 100 μM): 25 days
stability over the 25 day period ([8]; bicarbonate buffered saline pH 5.7, 100 μM): remained intact
stability over the 25 day period ([8]; bicarbonate buffered saline pH 7.1, 100 μM): remained intact
stability over the 25 day period ([8]; saline pH 3, 100 μM): remained intact
